Assay results: patent publication US20180071284A1, “PREVENTING OR TREATING VIRAL INFECTION BY INHIBITION OF THE HISTONE METHYLTRANSFERASE EZH1 OR EZH2” (The United States of America, as represented by the …, priority 2015, published 2018)

Key:
HSV-1 [1] = experiment: Removal of inhibitors prior to HSV-1 infection of HFF cells (mRNA levels); assay type: cell-based, herpes simplex virus 1 (HSV-1); settings: washed, then infected
Experimental: HFF cells were treated with inhibitors targeting the catalytic SET domain (compound 1, 35 μM: EZH2; compound 2, 15 μM: EZH2 and EZH1; compound 4, 30 μM: EZH2), EED-EZH2 and EED-EZH1 (compound 3, 30 μM), or DMSO (control) for 5-hrs. Cells were then washed with phosphate buffered saline (PBS) and replaced with media with no inhibitors for the indicated time in FIGS. 21-24 prior to infection with HSV-1 (2.0 PFU per cell) for 1.5-hrs in the absence of inhibitors.

neutrophil (Ly6G) = experiment: Neutrophil recruitment to the site of HSV infection in mouse eyes; assay type: in vivo, Balb/c mice; settings: topical to the eyes, 30 μM twice daily, day 5
Experimental: The eyes of Balb/c mice were scarified and mock or infected with 2×10^5 pfu of HSV-1 (strain F) per eye. Beginning on day 0.5, the eyes of mice were treated either with EZH1/2 inhibitor (compound 4: 30 μM), acyclovir (ACV: 30 μM), or vehicle control twice daily. On day 5, the eyes were fixed in paraformaldehyde and tissue sections were co-stained with anti-HSV-1, anti-Ly6G (neutrophil), and DAPI.

[2] = test system: cytokines, chemokines, and adhesion proteins involved in innate signaling; experiment: RNA-seq analysis of explanted trigeminal ganglia from HSV-1 latently infected mice; assay type: cell-based; settings: 30 μM, 12 hrs
Experimental: Trigeminal ganglia from HSV-1 latently infected mice were explanted in media with control DMSO (vehicle) or in media with compound 4 (30 μM) for 12 hrs. Total cellular RNA was isolated and RNA-seq analysis identified the induction of cytokines, chemokines, and adhesion proteins involved in innate signaling and recruitment of immune effector cells. The results are in Table 1 below, where changes in gene expression are expressed as ratios of compound 4 relative to vehicle.

HSV-1 [3] = experiment: HSV-1 viral IE mRNA levels in infected HFF cells; assay type: cell-based, herpes simplex virus 1 (HSV-1)
Description: The HFF cells were then infected with HSV-1 [2.0 PFU (plaque-forming units) per cell] for 1.5-hrs in the presence of inhibitor or DMSO. […] In the figures, the levels of HSV viral IE (ICP4, ICP22, and ICP27) and cellular control (TBP and SP1) mRNAs are expressed relative to cells treated with DMSO (vehicle). […] The HFF cells were then infected with HSV-1 (2.0, 5.0, and 10.0 PFU per cell) for 1.5-hrs in the presence of the inhibitor or DMSO. The levels of HSV viral IE (ICP0, ICP4, ICP22, and ICP27) and cellular controls (SP1 and TBP) mRNAs are expressed relative to cells treated with DMSO (vehicle). […] The levels of HSV viral IE (ICP0, ICP4, ICP22, and ICP27) and cellular control (SP1 and TBP) mRNAs are expressed relative to cells treated with DMSO (vehicle). […] HFF and Vero cells were then infected with HSV-1 (2.0 PFU per cell) for 1.5-hrs in the presence of inhibitor or DMSO. The levels of HSV viral IE (ICP0, ICP4, ICP22, and ICP27) and cellular control (SP1 and TBP) mRNAs are expressed relative to cells treated with DMSO (vehicle). […] HFF cells were treated with EZH1/2 catalytic inhibitor compound 4 (30 μM) or DMSO for 5-hrs. HFF cells were then mock or infected with HSV-1 (2.0 PFU per cell) for 1.5-hrs in the presence of inhibitor or DMSO. The levels of HSV viral IE (ICP4 and ICP27), control (SP1), and cellular innate interferon signaling (IFN-α, TNF-α, IL-8) mRNAs are expressed as absolute levels (absolute copies). […] HFF cells were treated with the EZH1/2 catalytic inhibitor compound 4 (5 μM) or DMSO for the indicated time as shown in FIG. 12. […] The levels of HSV viral IE (ICP0, ICP4, ICP22, and ICP27), control (TBP, ABAT, APOL3, UTX, and JMJD3), and cellular innate interferon signaling (IFN-α) mRNAs are expressed as ratios relative to cells treated with DMSO (vehicle). In this Example compound 4 was decreased to 5 μM and the duration of pretreatment was increased to 12, 24, and 48-hrs.

Zika virus (ZIKV) = experiment: Zika virus infection of HFF cells (focus forming units, percent infected cells); assay type: cell-based
Experimental: FIG. 32 presents line graphs that show the number and size of Focus Forming Units (FFU) after HFF cells were treated with the indicated concentrations of compound 4 for 5 h and infected with ZIKV for 40 h, in accordance with embodiments of the invention.
HFF cells were treated with compound 4 and infected with Zika virus (ZIKV), a member of the flavivirus family.
To determine if pretreatment was required to suppress ZIKV infection, cells were pretreated with compound 4 or were treated 3 h post ZIKV adsorption. While pretreatment was modestly more efficient at suppression of infection at lower compound 4 concentrations, it was not essential to effect significant suppression (FIG. 34).

HSV-1 [4] = experiment: HSV-1 viral IE mRNA levels in infected Vero (IFN-β null, IRF3 deficient) cells; assay type: cell-based, herpes simplex virus 1 (HSV-1); settings: 5-hrs pretreatment, HSV-1 2.0 PFU per cell
Experimental: HFF (wild-type) and Vero (IFN-β null, IRF3 deficient) cells were treated with the indicated concentration of EZH1/2 catalytic inhibitor (compound 1 or 4) or DMSO (vehicle) for 5-hrs. HFF and Vero cells were then infected with HSV-1 (2.0 PFU per cell) for 1.5-hrs in the presence of inhibitor or DMSO. The levels of HSV viral IE (ICP0, ICP4, ICP22, and ICP27) and cellular control (SP1 and TBP) mRNAs are expressed relative to cells treated with DMSO (vehicle).

[5] = HFF cells treated 5 h, infected with ZIKV for 40 h, dose-dependent

Structure (SMILES): CC[C@H](C)n1cc(C)c2c(C(=O)NCc3c(C)cc(C)[nH]c3=O)cc(-c3ccc(N4CCNCC4)nc3)cc21 [compound 4, GSK126]
- HSV IE expression after removal of compound prior to infection (HSV-1 [1]; 5-hrs treatment (compound 1 35 μM, 2 15 μM, 3 30 μM, 4 30 μM)): recovery of HSV IE expression
- IL6 stimulation after removal of compound prior to infection (HSV-1 [1]; 5-hrs treatment): decrease in IL6 stimulation
- neutrophil recruitment to the site of HSV infection (neutrophil (Ly6G)): Recruitment/infiltration of neutrophils
- genes induced >2 fold that are co-regulated by IFN (Interferome), ganglia explants [2]: 33 genes
- share of genes induced >2 fold that are co-regulated by IFN (Interferome), ganglia explants [2]: 69%
- Fold Change (Cmpd. 4 relative to vehicle) ([2]; Gene CCL2 (Chemokines)): 2.23
- Fold Change (Cmpd. 4 relative to vehicle) ([2]; Gene CXCL1 (Chemokines)): 6.30
- Fold Change (Cmpd. 4 relative to vehicle) ([2]; Gene CXCL2 (Chemokines)): 5.11
- Fold Change (Cmpd. 4 relative to vehicle) ([2]; Gene CXCL3 (Chemokines)): 2.68
- Fold Change (Cmpd. 4 relative to vehicle) ([2]; Gene CXCL5 (Chemokines)): 3.78
- Fold Change (Cmpd. 4 relative to vehicle) ([2]; Gene G-CSF (Cytokines)): 6.16
- Fold Change (Cmpd. 4 relative to vehicle) ([2]; Gene GM-CSF (Cytokines)): 5.51
- Fold Change (Cmpd. 4 relative to vehicle) ([2]; Gene ICAM1 (Adhesion)): 2.51
- Fold Change (Cmpd. 4 relative to vehicle) ([2]; Gene IL6 (Cytokines)): 3.61
- Fold Change (Cmpd. 4 relative to vehicle) ([2]; Gene IL11 (Cytokines)): 2.16
- Fold Change (Cmpd. 4 relative to vehicle) ([2]; Gene LIF (Cytokines)): 2.66
- Fold Change (Cmpd. 4 relative to vehicle) ([2]; Gene SELE (Adhesion)): 3.86
- Fold Change (Cmpd. 4 relative to vehicle) ([2]; Gene SELP (Adhesion)): 3.16
- Fold Change (Cmpd. 4 relative to vehicle) ([2]; Gene VEGF-c (Cytokines)): 2.10
- effect of increasing the duration of pretreatment on HSV IE expression (HSV-1 [3]; 5 μM, pretreatment 12, 24, and 48-hrs): enhanced the suppression of HSV IE expression
- cellular control SP1 mRNA (HSV-1 [3]; 30 μM, 5-hrs): no impact
- HSV viral IE expression (ICP4 and ICP27 mRNA) (HSV-1 [3]; 30 μM, 5-hrs, HSV-1 2.0 PFU per cell 1.5-hrs): represses HSV viral IE expression
- number of ZIKV infected cells (intracellular staining for ZIKV antigens) (Zika virus (ZIKV); 1 and 2 dpi): reduction
- number of ZIKV focus forming units (plaques) (Zika virus (ZIKV); [5]): significantly reduced
- size of ZIKV focus forming units (plaques) (Zika virus (ZIKV); [5]): significantly reduced
- requirement of pretreatment for suppression of ZIKV infection (Zika virus (ZIKV); pretreated vs treated 3 h post ZIKV adsorption): not essential
- antiviral activity (HSV IE mRNA) in Vero cells as compared to HFF (wild-type) cells (HSV-1 [4]): lack of antiviral activity
